Assays:
PPARs target genes = test: Expression of PPAR target genes by quantitative RT-PCR in db/db mouse tissue; type: in vivo; conditions: db/db mice, 50 mpk for 28 days
Procedure: Samples of hepatic tissue and adipose epididymal tissue were taken and frozen immediately in liquid nitrogen then conserved at −80° C. for later analysis.
Total RNA was extracted from liver fragments by using a NucleoSpine 96 RNA kit (Macherey Nagel, Hoerdt, France) according to the manufacturer's instructions.
The total RNA of the adipose tissue was extracted from tissue fragments with a method using guanidine thiocyanate. The tissues were briefly homogenized in 5 mL of a lysis buffer (guanidine thiocyanate 4M, EDTA pH8 10 mM, Tris HCl pH 7.5 50 mM and b-mercaptoethanol 1.4%) using polytron. To separate the layers, 500 μL of sodium acetate 2M pH4, 5 mL of phenol, and 2 mL of a mixture of chloroform/isoamylic alcohol (49:1) were added. After centrifugation, the aqueous layer was collected and the RNA was precipitated in the presence of isopropanol. After a second precipitation, the RNA was washed with ethanol 70°, dried, then suspended again in an volume of water free of RNase. A step of purification/DNase I treatment of the RNA was then carried out by using NucleoSpin® 96 RNA kit (Macherey-Nagel) according to the manufacturer's instructions. 1 μg of total RNA (quantified by using the Ribogreen RNA quantification kit (Molecular Probes)) was then reverse-transcribed into cDNA by means of a 1 hour reaction at 37° C. in a total volume of 20 μl containing a buffer 1× (Sigma), 1.5 mM of DTT, 0.18 mM, of dNTPs (Promega), 200 ng of pdN6 (Amersham), 30 U of RNase inhibitor (Sigma), and 1 μl of MMLV-RT (Sigma). The quantitative PCR experiments were carried out using the MyiQ Single-Color Real-Time PCR Detection System (Biorad, Marnes-la-Coquette, France) and were performed using the iQ SYBR Green Supermix kit according to the manufacturer's recommendations, in 96-well plates in 5 μl of a diluted reverse transcription solution at a hybridization temperature of 55° C. Primer pairs specific to the studied genes were used:
The quantity of emitted fluorescence is directly proportional to the quantity of cDNA present at the beginning of the reaction and amplified during the PCR. For each target studied, a range of solutions is performed with successive dilutions of a mixture made up of a few μl of different reverse-transcription solutions. The relative levels of expression of each target are thus determined by using efficiency curves obtained with the points relative to the range.
The expression levels of the genes of interest were then normalized, in the hepatic tissue with respect to the level expression of reference gene 36B4 (whose specific primers are: sense primer: 5′-[…]-3′ (SEQ ID NO: 15) and antisense primer: 5′-[…]-3′ (SEQ ID NO: 16)), and in the adipose tissue with respect to reference gene 18S (whose specific primers are: sense primer: 5′-[…]-3′ (SEQ ID NO: 17) and antisense primer: 5′-[…]-3′ (SEQ ID NO: 18)). The induction factor was then calculated for each sample. The higher the induction factor is, the more the compound promotes gene expression. The final result is represented as the average of the induction values within each experimental group.

[1] = target: T1, angiotensin II AT1 receptor (Oryctolagus cuniculus, UniProt P34976); test: Ex vivo agonist/antagonist activity on isolated rabbit thoracic aorta rings; conditions: 0.3, 3 and 30 μM; for agonist activity (contraction): non-treated rabbit thoracic aorta; for antagonist activity (inhibition of contractile response to angiotensin II): rabbit thoracic aorta previously exposed to angiotensin II 0.003 μM
T1 construct: tissue CEREP; host or cells: rabbit thoracic aorta rings
T1 sequence (P34976 1-359): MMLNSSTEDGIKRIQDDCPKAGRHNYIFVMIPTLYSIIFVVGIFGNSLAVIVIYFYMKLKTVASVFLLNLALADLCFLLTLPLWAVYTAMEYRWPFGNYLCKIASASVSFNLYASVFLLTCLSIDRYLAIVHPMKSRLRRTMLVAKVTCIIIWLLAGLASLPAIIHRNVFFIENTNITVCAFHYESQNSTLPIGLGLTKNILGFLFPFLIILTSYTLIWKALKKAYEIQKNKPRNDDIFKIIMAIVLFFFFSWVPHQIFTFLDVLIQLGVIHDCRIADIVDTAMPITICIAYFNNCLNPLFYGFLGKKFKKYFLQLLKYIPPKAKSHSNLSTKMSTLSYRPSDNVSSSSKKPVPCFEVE
Procedure: This activity is either agonist or antagonist and was evaluated ex vivo on isolated organs. Agonist activity corresponds to tissue contraction. Antagonist activity corresponds to tissue dilatation.
The ex vivo test was performed at the CEREP (Celle L'Evescault, France (86)) following a protocol based on Pendleton et al. (Pendleton R G et al.,1989). Rabbit thoracic aorta rings with intact endothelium were suspended in baths for organs containing an oxygenated physiologic saline solution (95% O2 and 5% CO2) and preheated (37° C.) having the following composition (mM): NaCl 118.0, KCl 4.7, MgSO4 1.2, CaCl2 2.5, KH2PO4 1.2, NaHCO3 25.0, and glucose 11.0 (pH 7.4).
Benextramine (1 μM), propranolol (1 μM), pyrilamine (1 μM), atropine (1 μM), methysergide (1 μM), and captopril (0.1 μM) were also used in all carried out experiments to block respectively α-adrenergic, β-adrenergic, histaminic H1 muscarinic, and 5-HT2 receptors as well as to prevent peptide degradation. The tissues were bound to a force sensor suitable for isometric tension recording. They were stretched to a resting tension of 4 g, then stabilized for 60 minutes. During the stabilization, they were washed several times and the tension was adjusted. The experiments were carried out using semi-automatic systems of isolated organs with eight organ baths and multichannel data acquisition.
The tissues were exposed to a submaximal concentration of the reference agonist (angiotensin II at 0.003 μM) to verify the response and obtain a control contractile response.
After several washing operations and after having recovered the basal tone, the tissues were exposed to increasing concentrations of compounds according to the invention or the same agonist. The different concentrations were added cumulatively, each one was left in contact with the tissues until a stable response was reached and for a maximum of 30 minutes. If an agonist type response (contraction) was registered, the reference antagonist (Saralasine at 0.01 μM) was tested regarding the highest concentration of the compounds according to the invention to confirm the involvement of the AT1 receptors in the response.
After stabilization of the contraction induced by angiotensin II, increasing concentrations of compounds according to the invention or of the reference antagonist (Saralasine) were added cumulatively. Each concentration was left in contact with the tissues until a stable response was observed and for a maximum of 30 minutes.
The inhibiting effect of the compounds according to the invention on the contraction induced by the angiotensin 11 indicates antagonist activity on AT1 receptors.

hPPARα = target: T2, hPPARα (Homo sapiens, UniProt Q07869); test: Gal4-hPPARα transactivation in COS-7 cells (luciferase); type: cell-based; conditions: COS-7 cells transfected pGal4-hPPAR, 0.01 to 100 μM
T2 construct: DNA fragments amplified by PCR and corresponding to the DEF domains of human PPARα, PPARγ, and PPARδ nuclear receptors; expressed in transfected cells; host or cells: COS-7
T2 sequence (Q07869 239-466 limits assumed): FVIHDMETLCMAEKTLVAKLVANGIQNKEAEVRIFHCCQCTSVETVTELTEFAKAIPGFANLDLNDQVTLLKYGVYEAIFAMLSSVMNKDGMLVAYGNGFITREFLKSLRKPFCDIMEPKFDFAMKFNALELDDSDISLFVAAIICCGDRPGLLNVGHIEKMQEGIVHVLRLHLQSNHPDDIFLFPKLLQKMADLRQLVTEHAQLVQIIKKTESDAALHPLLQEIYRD
Procedure: (§1) The activation of PPARs was evaluated in vitro using a monkey kidney fibroblast line (COS-7) by measuring the transcriptional activity of chimeras made up of the DNA binding domain of the Gal4 transcription factor of yeast and of the binding domain to the ligand of the different PPARs. The compounds were tested at doses of between 0.01 and 100 μM on Gal4-PPARα, γ, and δ chimeras.
(§2) COS-7 cells came from ATCC (American type culture collection) and were cultivated in a DMEM medium supplemented with 10% (vol/vol) of fetal calf serum, 100 U/ml of penicillin (Gibco, Paisley, UK) and 2 mM of L-Glutamine (Gibco, Paisley, UK). The cells were incubated at 37° C. under humid atmosphere containing 5% CO2.
(§3) The plasmids Gal4(RE)_TkpGL3, pGal4-hPPARα, pGal4-hPPARγ, pGal4-hPPARδ and pGal4-φ have been described in the literature (Raspe E et al., 1999). The constructions pGal4-hPPARα, pGal4-hPPARγ, and pGal4-hPPARδ were obtained by cloning, in the pGal4-φ vector, DNA fragments amplified by PCR and corresponding to the DEF domains of human PPARα, PPARγ, and PPARδ nuclear receptors.
(§4) The COS-7 cells in suspension were transfected with 150 ng of DNA per well, with a pGal4-PPAR/Gal4(RE)_TkpGL3 ratio of 1/10, in presence of 10% fetal calf serum. The cells were then plated in 96-well plates (4×10^4 cells/well), then incubated for 24 hours at 37° C. Activation with the test compounds was performed for 24 hours at 37° C. in a medium without serum. At the end of the experiment, the cells were lysed and the luciferase activity was determined using the Steady-Lite™ HTS (Perkin Elmert) or the Steady Glow Luciferase kit (Promega), in accordance with the provider's recommendations.
(§5) The compounds according to the invention were tested at doses between 0,01 and 100 μM on the 3 PPAR isoforms. The results obtained are presented in detail under FIG. 1a.

hPPARγ = target: T3, hPPARγ (Homo sapiens, UniProt P37231); test: Gal4-hPPARγ transactivation in COS-7 cells (luciferase); type: cell-based; conditions: COS-7 cells transfected pGal4-hPPAR, 0.01 to 100 μM
T3 construct: DNA fragments amplified by PCR and corresponding to the DEF domains of human PPARα, PPARγ, and PPARδ nuclear receptors; expressed in transfected cells; host or cells: COS-7
T3 sequence (P37231 238-503 limits assumed): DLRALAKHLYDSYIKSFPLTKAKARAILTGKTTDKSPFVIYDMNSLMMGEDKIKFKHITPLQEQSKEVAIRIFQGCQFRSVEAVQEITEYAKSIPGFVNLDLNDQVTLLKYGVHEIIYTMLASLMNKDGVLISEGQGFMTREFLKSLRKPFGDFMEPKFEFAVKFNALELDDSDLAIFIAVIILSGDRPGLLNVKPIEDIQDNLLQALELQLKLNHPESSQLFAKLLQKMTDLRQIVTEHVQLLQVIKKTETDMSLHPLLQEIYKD
Procedure: as §1, §2, §3, §4, §5

melting point [°C]	agonist activity (contraction) [1]	activation of hPPARα (luciferase activity) (hPPARα)	activation of hPPARγ (luciferase activity) (hPPARγ)	Compound	hepatic expression of the gene coding for CPT1 b (PPARs target genes)	hepatic expression of the gene coding for PDK-4 (PPARs target genes)	expression of the gene coding for ApoCIII (PPARs target genes; liver)	expression of the gene coding for FBb (PPARs target genes; liver)	antagonist activity (inhibition of contractile response to angiotensin II) [1]
180	–	–	–	CCCCC1=NC2(CCCC2)C(=O)N1Cc1ccc(-c2ccc(OC(C)(C)C(=O)O)cc2)cc1 [Compound 2, 2-butyl-1-[(4′-((1-carboxy-1,1-dimethylmethyl)oxy)biphenyl-4-yl)methyl]-4-spirocyclopentyl-1H-imidazol-5(4H)-one]	significant increase	significant increase	significant decrease	significant decrease	–
143	do not induce contraction	–	–	CCCCC1=NC2(CCCC2)C(=O)N1Cc1ccc(-c2cc(OC(C)(C)C(=O)O)ccc2CC)cc1 [Compound 80, 2-butyl-1-[(3′-((1-carboxy-1,1-dimethylmethyl)oxy)-6′-ethyl-biphenyl-4-yl)methyl]-4-spirocyclopentyl-1H-imidazol-5(4H)-one]	–	–	–	–	inhibiting effect of the contractile response of the reference agonist
75 to 77	–	activates only hPPARα	activates only hPPARα	CCCCC1=NC2(CCCCC2)C(=O)N1Cc1ccc(-c2ccc(OC(C)(C)C(=O)O)cc2)cc1 [Compound 25, 2-butyl-1-[(4′-((1-carboxy-1,1-dimethylmethyl)oxy)biphenyl-4-yl)methyl]-4-spirocyclohexyl-1H-imidazol-5(4H)-one]	–	–	–	–	–
85	do not induce contraction	–	–	CCCCC1=NC2(CCCCC2)C(=O)N1Cc1ccc(-c2cccc(OC(C)C(=O)O)c2)cc1 (centres unmarked) [Compound 53]	–	–	–	–	inhibiting effect of the contractile response of the reference agonist
